Experiment: Acute Toxic characters (Mouse LD50)
Type: in vivo
Settings: HCl salt; for Mouse LD50: female; for LD50: mouse, in vivo, male
[1] = ip, Intraperitoneal Administration
[2] = sc, Subcutaneous Administration

| SMILES | Mouse LD50 (Intraperitoneal Administration) | Mouse LD50 (Intravenous Administration) | Mouse LD50 (Oral Administration) | Mouse LD50 (Subcutaneous Administration) | LD50 [1] | LD50 [2] | LD50 (Intravenous Administration) | LD50 (Oral Administration) |
| --- | --- | --- | --- | --- | --- | --- | --- | --- |
| C[C@@H](O)[C@H](NC(=O)[C@@H](CCCN)NC(=O)[C@H](CC(O)CNC(=N)N)NC(=O)[C@@H](N)CCCNC(=N)N)C(=O)N[C@H](CCCN)C(=O)N[C@@H](CC(O)CNC(=N)N)C(=O)N[C@H](Cc1ccc(O)cc1)C(=O)O (single isomer, unassigned) [L-ARG--L-(ARG(OH)--D-ORN--L-THR--D-ORN--L-ARG(OH)--D-TYR] | 43.2 to 57.2 mg/kg | 24.1 to 34.8 mg/kg | 2400 to 3000 mg/kg | 104 to 125 mg/kg | 43.2 to 57.2 mg/kg | 86.8 to 104 mg/kg | 24.1 to 34.8 mg/kg | 2400 to 3000 mg/kg |
| C[C@@H](O)[C@H](NC(=O)[C@@H](CCCN)NC(=O)[C@H](CC(O)CNC(=N)N)NC(=O)[C@@H](N)CCCNC(=N)N)C(=O)N[C@H](CCCN)C(=O)N[C@@H](CCCCN)C(=O)N[C@H](Cc1ccc(O)cc1)C(=O)O (single isomer, unassigned) [L-ARG--L-ARG(OH)--D-ORN--L-THR--D-ORN--L-Lys--D-TYR] | above 300 mg/kg | 144 to 1728 mg/kg | above 6000 mg/kg | ≥ 320 mg/kg | > 300 mg/kg | ≥ 320 mg/kg | 120 to 144 mg/kg | > 6000 mg/kg |
